Assay results as given in PubChem BioAssay (NCI).
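48-hour exposure; five concentrations; linearly interpolated endpoints. At the GI50, growth is halved. TGI: concentration producing complete growth inhibition.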

Assays:
Experiment in all cases: NCI-60 cell line screen, 48 h
MDA-MB-435 = system: MDA-MB-435
HL-60(TB) leukemia = system: HL-60(TB) leukemia
SK-MEL-2 melanoma = system: SK-MEL-2 melanoma
HCC-2998 colon = system: HCC-2998 colon
COLO 205 colon = system: COLO 205 colon
M14 melanoma = system: M14 melanoma
OVCAR-8 ovarian = system: OVCAR-8 ovarian
PC-3 prostate = system: PC-3 prostate
OVCAR-5 ovarian = system: OVCAR-5 ovarian
SK-OV-3 ovarian = system: SK-OV-3 ovarian
CAKI-1 renal = system: CAKI-1 renal
U251 CNS = system: U251 CNS
NCI-H23 lung = system: NCI-H23 lung
NCI-H522 lung = system: NCI-H522 lung
MALME-3M melanoma = system: MALME-3M melanoma
T-47D breast = system: T-47D breast
NCI-H460 lung = system: NCI-H460 lung
SK-MEL-5 melanoma = system: SK-MEL-5 melanoma
HS 578T breast = system: HS 578T breast
HOP-92 NSCLC = system: HOP-92 NSCLC
K-562 leukemia = system: K-562 leukemia
SF-295 CNS = system: SF-295 CNS
HCT-116 colon = system: HCT-116 colon
SN12C renal = system: SN12C renal
MOLT-4 leukemia = system: MOLT-4 leukemia
A549 NSCLC = system: A549 NSCLC
OVCAR-3 ovarian = system: OVCAR-3 ovarian
KM12 colon = system: KM12 colon
HCT-15 colon = system: HCT-15 colon
RXF 393 renal = system: RXF 393 renal
NCI-H226 lung = system: NCI-H226 lung
CCRF-CEM leukemia = system: CCRF-CEM leukemia
UACC-62 melanoma = system: UACC-62 melanoma
A498 renal = system: A498 renal
DU-145 prostate = system: DU-145 prostate
UACC-257 melanoma = system: UACC-257 melanoma
NCI/ADR-RES ovarian = system: NCI/ADR-RES ovarian
SF-539 CNS = system: SF-539 CNS
HOP-62 NSCLC = system: HOP-62 NSCLC
786-0 renal = system: 786-0 renal
OVCAR-4 ovarian = system: OVCAR-4 ovarian
LOX IMVI melanoma = system: LOX IMVI melanoma
SNB-19 CNS = system: SNB-19 CNS
EKVX NSCLC = system: EKVX NSCLC
HT29 colon = system: HT29 colon
RPMI-8226 leukemia = system: RPMI-8226 leukemia
SW-620 colon = system: SW-620 colon
ACHN renal = system: ACHN renal
SNB-75 CNS = system: SNB-75 CNS
IGROV1 ovarian = system: IGROV1 ovarian
UO-31 renal = system: UO-31 renal
BT-549 breast = system: BT-549 breast
SF-268 CNS = system: SF-268 CNS
TK-10 renal = system: TK-10 renal
SR leukemia = system: SR leukemia
MCF7 breast = system: MCF7 breast

Question: With `Cc1cc(C(O)(c2ccc(Nc3ccccc3)cc2)c2ccc(Nc3ccc(S(=O)(=O)O)cc3)cc2)ccc1N` (configuration not stated) as the compound, how does the GI50 (MDA-MB-435) read?
Answer: 1280 nM

Question: What about the TGI (MDA-MB-435) of the same compound?
Answer: 2690 nM

Question: What about the GI50 (HL-60(TB) leukemia) of the same compound?
Answer: 1660 nM

Question: What about the TGI (HL-60(TB) leukemia) of the same compound?
Answer: 6120 nM

Question: What about the GI50 (SK-MEL-2 melanoma) of the same compound?
Answer: 1550 nM

Question: What about the TGI (SK-MEL-2 melanoma) of the same compound?
Answer: 4680 nM

Question: What about the GI50 (HCC-2998 colon) of the same compound?
Answer: 1230 nM

Question: What about the TGI (HCC-2998 colon) of the same compound?
Answer: 2580 nM

Question: And the GI50 (COLO 205 colon)?
Answer: 782 nM

Question: What about the TGI (COLO 205 colon) of the same compound?
Answer: 2800 nM

Question: And the GI50 (M14 melanoma)?
Answer: 1200 nM

Question: What about the TGI (M14 melanoma) of the same compound?
Answer: 2980 nM

Question: And the GI50 (OVCAR-8 ovarian)?
Answer: 1080 nM

Question: What about the TGI (OVCAR-8 ovarian) of the same compound?
Answer: 3570 nM

Question: What about the GI50 (PC-3 prostate) of the same compound?
Answer: 1310 nM

Question: What about the TGI (PC-3 prostate) of the same compound?
Answer: 6180 nM

Question: What about the GI50 (OVCAR-5 ovarian) of the same compound?
Answer: 1400 nM

Question: And the TGI (OVCAR-5 ovarian)?
Answer: 3000 nM

Question: What about the GI50 (SK-OV-3 ovarian) of the same compound?
Answer: 2530 nM

Question: And the TGI (SK-OV-3 ovarian)?
Answer: 5920 nM

Question: What about the GI50 (CAKI-1 renal) of the same compound?
Answer: 2240 nM

Question: What about the TGI (CAKI-1 renal) of the same compound?
Answer: 9140 nM

Question: And the GI50 (U251 CNS)?
Answer: 772 nM

Question: What about the TGI (U251 CNS) of the same compound?
Answer: 2050 nM

Question: What about the GI50 (NCI-H23 lung) of the same compound?
Answer: 1690 nM

Question: And the TGI (NCI-H23 lung)?
Answer: 3560 nM

Question: What about the GI50 (NCI-H522 lung) of the same compound?
Answer: 1260 nM

Question: And the TGI (NCI-H522 lung)?
Answer: 4440 nM

Question: And the GI50 (MALME-3M melanoma)?
Answer: 1580 nM

Question: What about the TGI (MALME-3M melanoma) of the same compound?
Answer: 3110 nM

Question: And the GI50 (T-47D breast)?
Answer: 609 nM

Question: And the TGI (T-47D breast)?
Answer: 3180 nM

Question: What about the GI50 (NCI-H460 lung) of the same compound?
Answer: 1320 nM

Question: What about the TGI (NCI-H460 lung) of the same compound?
Answer: 2780 nM

Question: And the GI50 (SK-MEL-5 melanoma)?
Answer: 1260 nM

Question: What about the TGI (SK-MEL-5 melanoma) of the same compound?
Answer: 2580 nM

Question: What about the GI50 (HS 578T breast) of the same compound?
Answer: 1500 nM

Question: And the TGI (HS 578T breast)?
Answer: 5550 nM

Question: What about the GI50 (HOP-92 NSCLC) of the same compound?
Answer: 1030 nM

Question: What about the TGI (HOP-92 NSCLC) of the same compound?
Answer: 2540 nM

Question: What about the GI50 (K-562 leukemia) of the same compound?
Answer: 911 nM

Question: And the TGI (K-562 leukemia)?
Answer: > 100000 nM

Question: What about the GI50 (SF-295 CNS) of the same compound?
Answer: 1690 nM

Question: And the TGI (SF-295 CNS)?
Answer: 3250 nM

Question: And the GI50 (HCT-116 colon)?
Answer: 1210 nM

Question: And the TGI (HCT-116 colon)?
Answer: 2650 nM

Question: And the GI50 (SN12C renal)?
Answer: 1820 nM

Question: And the TGI (SN12C renal)?
Answer: 9120 nM

Question: What about the GI50 (MOLT-4 leukemia) of the same compound?
Answer: 445 nM

Question: What about the TGI (MOLT-4 leukemia) of the same compound?
Answer: > 100000 nM

Question: What about the GI50 (A549 NSCLC) of the same compound?
Answer: 1550 nM

Question: What about the TGI (A549 NSCLC) of the same compound?
Answer: 3250 nM

Question: What about the GI50 (OVCAR-3 ovarian) of the same compound?
Answer: 1110 nM

Question: And the TGI (OVCAR-3 ovarian)?
Answer: 2490 nM

Question: What about the GI50 (KM12 colon) of the same compound?
Answer: 1490 nM

Question: What about the TGI (KM12 colon) of the same compound?
Answer: 3280 nM

Question: What about the GI50 (HCT-15 colon) of the same compound?
Answer: 1040 nM

Question: What about the TGI (HCT-15 colon) of the same compound?
Answer: 2950 nM

Question: And the GI50 (RXF 393 renal)?
Answer: 989 nM

Question: And the TGI (RXF 393 renal)?
Answer: 2280 nM

Question: And the GI50 (NCI-H226 lung)?
Answer: 1630 nM

Question: And the TGI (NCI-H226 lung)?
Answer: 3420 nM

Question: And the GI50 (CCRF-CEM leukemia)?
Answer: 439 nM

Question: What about the TGI (CCRF-CEM leukemia) of the same compound?
Answer: > 100000 nM

Question: What about the GI50 (UACC-62 melanoma) of the same compound?
Answer: 499 nM

Question: And the TGI (UACC-62 melanoma)?
Answer: 2120 nM

Question: And the GI50 (A498 renal)?
Answer: 1580 nM

Question: And the TGI (A498 renal)?
Answer: 3510 nM

Question: And the GI50 (DU-145 prostate)?
Answer: 1320 nM

Question: And the TGI (DU-145 prostate)?
Answer: 2670 nM

Question: And the GI50 (UACC-257 melanoma)?
Answer: 1350 nM

Question: And the TGI (UACC-257 melanoma)?
Answer: 3430 nM

Question: And the GI50 (NCI/ADR-RES ovarian)?
Answer: 1830 nM

Question: And the TGI (NCI/ADR-RES ovarian)?
Answer: 4580 nM

Question: And the GI50 (SF-539 CNS)?
Answer: 1640 nM

Question: And the TGI (SF-539 CNS)?
Answer: 3320 nM

Question: What about the GI50 (HOP-62 NSCLC) of the same compound?
Answer: 2270 nM

Question: What about the TGI (HOP-62 NSCLC) of the same compound?
Answer: 4650 nM

Question: And the GI50 (786-0 renal)?
Answer: 1020 nM

Question: And the TGI (786-0 renal)?
Answer: 2270 nM

Question: And the GI50 (OVCAR-4 ovarian)?
Answer: 1310 nM

Question: What about the TGI (OVCAR-4 ovarian) of the same compound?
Answer: 3390 nM

Question: And the GI50 (LOX IMVI melanoma)?
Answer: 975 nM

Question: What about the TGI (LOX IMVI melanoma) of the same compound?
Answer: 2170 nM

Question: And the GI50 (SNB-19 CNS)?
Answer: 1390 nM

Question: And the TGI (SNB-19 CNS)?
Answer: 3480 nM

Question: What about the GI50 (EKVX NSCLC) of the same compound?
Answer: 1490 nM

Question: What about the TGI (EKVX NSCLC) of the same compound?
Answer: 3890 nM

Question: What about the GI50 (HT29 colon) of the same compound?
Answer: 516 nM

Question: And the TGI (HT29 colon)?
Answer: 2340 nM

Question: And the GI50 (RPMI-8226 leukemia)?
Answer: 571 nM

Question: And the TGI (RPMI-8226 leukemia)?
Answer: 2990 nM

Question: And the GI50 (SW-620 colon)?
Answer: 818 nM

Question: What about the TGI (SW-620 colon) of the same compound?
Answer: 3270 nM

Question: And the GI50 (ACHN renal)?
Answer: 1290 nM

Question: And the TGI (ACHN renal)?
Answer: 2700 nM

Question: And the GI50 (SNB-75 CNS)?
Answer: 1290 nM

Question: What about the TGI (SNB-75 CNS) of the same compound?
Answer: 30900 nM

Question: And the GI50 (IGROV1 ovarian)?
Answer: 1520 nM

Question: What about the TGI (IGROV1 ovarian) of the same compound?
Answer: 3400 nM

Question: And the GI50 (UO-31 renal)?
Answer: 1120 nM

Question: And the TGI (UO-31 renal)?
Answer: 2380 nM

Question: What about the GI50 (BT-549 breast) of the same compound?
Answer: 1840 nM

Question: What about the TGI (BT-549 breast) of the same compound?
Answer: 5610 nM

Question: And the GI50 (SF-268 CNS)?
Answer: 1680 nM

Question: What about the TGI (SF-268 CNS) of the same compound?
Answer: 4190 nM

Question: And the GI50 (TK-10 renal)?
Answer: 1700 nM

Question: And the TGI (TK-10 renal)?
Answer: 3770 nM

Question: And the GI50 (SR leukemia)?
Answer: 713 nM

Question: What about the TGI (SR leukemia) of the same compound?
Answer: > 100000 nM

Question: And the GI50 (MCF7 breast)?
Answer: 478 nM

Question: What about the TGI (MCF7 breast) of the same compound?
Answer: 2670 nM
